{"source": "ChEMBL document CHEMBL1146468", "about": "“Plakolide A, a new gamma-lactone from the marine sponge Plakortis sp” (J Nat Prod, 2004)", "key": {"P388": {"system": "P388", "test": "Cytotoxicity against mouse P388 cells after 72 hrs by MTT assay", "assay_type": "functional, cell-based", "conditions": "P388, 72 h"}, "A549": {"system": "A549", "test": "Cytotoxicity against human A549 cells after 72 hrs by MTT assay", "assay_type": "functional, cell-based", "conditions": "A549, 72 h"}, "[1]": {"test": "Cytotoxicity against mouse RAW264.7 cells assessed as cell viability at 1.3 ug/ml after 3 hrs by MTT assay", "assay_type": "cell-based", "conditions": "read-out: Activity"}, "[2]": {"molecular_target": "T1, Nitric oxide synthase, inducible (Mus musculus, UniProt P29477)", "T1 sequence (P29477 whole entry)": "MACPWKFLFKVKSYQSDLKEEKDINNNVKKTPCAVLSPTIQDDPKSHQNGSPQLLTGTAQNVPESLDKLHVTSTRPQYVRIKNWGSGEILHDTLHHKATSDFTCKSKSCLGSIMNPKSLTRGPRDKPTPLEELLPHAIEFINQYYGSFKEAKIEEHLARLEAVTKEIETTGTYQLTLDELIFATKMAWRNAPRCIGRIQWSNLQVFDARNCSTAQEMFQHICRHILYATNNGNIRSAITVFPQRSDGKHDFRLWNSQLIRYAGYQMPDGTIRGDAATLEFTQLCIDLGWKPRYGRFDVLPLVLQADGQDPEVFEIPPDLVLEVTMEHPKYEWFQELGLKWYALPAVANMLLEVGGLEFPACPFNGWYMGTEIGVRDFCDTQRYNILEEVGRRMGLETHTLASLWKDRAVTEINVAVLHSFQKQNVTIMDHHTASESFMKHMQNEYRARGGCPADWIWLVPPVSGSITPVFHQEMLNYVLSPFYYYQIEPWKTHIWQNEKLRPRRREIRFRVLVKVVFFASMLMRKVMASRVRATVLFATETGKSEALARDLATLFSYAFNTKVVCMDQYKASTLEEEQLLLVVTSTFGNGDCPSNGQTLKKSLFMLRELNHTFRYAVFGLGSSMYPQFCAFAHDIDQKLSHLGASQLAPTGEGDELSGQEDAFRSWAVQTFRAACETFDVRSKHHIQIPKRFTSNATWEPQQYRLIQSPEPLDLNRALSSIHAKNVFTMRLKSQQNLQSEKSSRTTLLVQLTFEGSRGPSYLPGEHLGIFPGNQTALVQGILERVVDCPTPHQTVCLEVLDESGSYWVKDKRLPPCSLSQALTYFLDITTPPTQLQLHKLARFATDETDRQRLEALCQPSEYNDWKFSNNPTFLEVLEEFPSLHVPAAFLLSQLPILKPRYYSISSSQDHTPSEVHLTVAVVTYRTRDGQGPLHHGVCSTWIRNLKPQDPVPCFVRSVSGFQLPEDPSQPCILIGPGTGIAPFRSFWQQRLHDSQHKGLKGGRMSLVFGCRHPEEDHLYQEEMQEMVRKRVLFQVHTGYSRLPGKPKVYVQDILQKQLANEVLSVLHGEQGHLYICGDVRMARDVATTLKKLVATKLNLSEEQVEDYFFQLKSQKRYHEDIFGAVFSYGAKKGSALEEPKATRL", "test": "Inhibition of iNOS-mediated NO production in LPS-stimulated mouse RAW264.7 cells by Griess method", "assay_type": "cell-based"}, "[3]": {"test": "Cytotoxicity against human NCI/ADR cells after 72 hrs by MTT assay", "assay_type": "functional, cell-based", "conditions": "NCI/ADR-RES"}, "PANC-1": {"system": "PANC-1", "test": "Cytotoxicity against human PANC1 cells after 72 hrs by MTT assay", "assay_type": "functional, cell-based", "conditions": "PANC-1, 72 h"}}}
{"smiles": "C=C1C[C@@](C)(/C=C/C=C/CCCCCCCC)OC1=O", "note": "[PLAKOLIDE A]", "values": [{"measurement": "IC50", "setting": "P388", "value": 1.1, "unit": "µg/mL"}, {"measurement": "IC50", "setting": "A549", "value": 5, "unit": "µg/mL"}, {"measurement": "viability at 3 h, 1.3 ug/ml", "setting": "[1]", "value": 50, "unit": "%"}, {"measurement": "IC50", "setting": "[2]", "value": 724, "unit": "nM"}, {"measurement": "IC50", "setting": "[3]", "value": 3.7, "unit": "µg/mL"}, {"measurement": "IC50", "setting": "PANC-1", "value": 3.8, "unit": "µg/mL"}]}
